We go through 15 compounds from PubChem BioAssay (NCI).

What all share (experiment): inhibition of tumour cell growth, NCI panel, 48 h
Assay [1] deals with SN12C renal.
In assay [2] the test system is SNB-19 CNS.
Assay [3] concerns 786-0 renal.
Assay [4] deals with NCI-H226 lung.
For assay [5], the system named is PC-3 prostate.
Assay [6] has as its system HCT-116 colon.
Assay [7] relates to MOLT-4 leukemia.
The test system of assay [8] is K-562 leukemia.
In assay [9] the test system is SW-620 colon.
Assay [10] has as its system HCC-2998 colon.
Assay [11] concerns DU-145 prostate.
The subject of assay [12] is LOX IMVI melanoma.
Assay [13] deals with T-47D breast.
Assay [14] relates to U251 CNS.
Assay [15] deals with NCI/ADR-RES ovarian.
Assay [16] has as its system RXF 393 renal.
Assay [17] concerns SF-539 CNS.
For assay [18], the system named is HOP-62 NSCLC.
Assay [19] has as its system HS 578T breast.
For assay [20], the system named is SF-268 CNS.

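A five-concentration, 48-hour dose response in 96-well plates underlies each endpoint, interpolated linearly between surrounding concentrations. TGI is the concentration that stops growth completely.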 Bounds are passed on as bounds.

As for `CNc1nc(=O)c(C#N)c(-c2ccc(C)cc2)s1`, the TGI in assay [1], in assay [2], in assay [3], in [4], in assay [5] and in assay [6] was > 100 µM throughout. For the same compound, the TGI in [7], in assay [8], in assay [9], in [10], in assay [11] and in [12] was > 100 µM throughout. Besides, the TGI in assay [13], in assay [14], in assay [15], in [16] and in [17] was > 100 µM in each case.
As for `N#CCCCCC12C3C(=O)N(c4ccccc4)C(=O)C3ON1O[C@@H]1C(=O)N(c3ccccc3)C(=O)[C@@H]12` (stereo partly drawn), the TGI in [1], in assay [2], in assay [3], in assay [4], in [18] and in assay [5] was > 100 µM each time. Further, the TGI in assay [7], in assay [8], in [9], in assay [10], in assay [11] and in assay [19] was > 100 µM in each case. Further, the TGI in assay [12], in assay [13], in assay [20], in assay [14], in assay [15] and in assay [17] was > 100 µM in each case.
With `O=C(/C=C/c1ccsc1)c1ccc(Cl)s1`, the TGI is > 100 µM in assay [1]; > 100 µM in [2]; > 100 µM in assay [4]; > 100 µM in [18]; > 100 µM in [5]; 60.5 µM in [6]. In addition, the TGI in [7] was 52 µM; in assay [9], 55.5 µM; in [10], > 100 µM; in assay [11], > 100 µM; in assay [19] it was > 100 µM; in assay [12], 37.1 µM. Besides, the TGI in assay [13], in [20], in assay [14], in [15] and in [17] was > 100 µM throughout.
As for `CCC(C)N1CN(c2ccccc2)C2(CCN(CCCC(=O)c3ccc(F)cc3)CC2)C1=O` (stereo not drawn), the TGI is 14.3 µM in assay [1]; > 100 µM in assay [3]; 4.51 µM in assay [18]; 23.1 µM in assay [5]; 3.16 µM in assay [6]; 23.2 µM in assay [7]. In addition, the TGI in assay [8] was > 100 µM; in assay [9], 16 µM; in assay [11] it was 13.4 µM; in assay [19], 36.4 µM; in assay [12] it was 10.8 µM; in assay [13], 15.9 µM. The TGI in [20] is 29 µM; in [14] it was 16.9 µM; in [15], > 100 µM; in assay [16], 30 µM; in [17] it was 21 µM.
Take `COC(=O)C1=C2Nc3ccccc3C23CCN2C(O)C4(CC5CC67CCOC6CCN6CCC8(c9cccc(OC)c9N(C4)C58O)C67)C4OCCC4(C1)C23` (stereo not drawn): the TGI was > 100 µM in [1]; > 100 µM in assay [2]; 50.5 µM in assay [3]; > 100 µM in assay [4]; > 100 µM in assay [18]; > 100 µM in assay [5]. For the same compound, the TGI in assay [6] is > 100 µM; in assay [8], > 100 µM; in assay [9], > 100 µM; in [10], > 100 µM; in assay [11], > 100 µM; in assay [19], 77.5 µM. In addition, the TGI in assay [12] is > 100 µM; in assay [13], 55.7 µM; in assay [20] it was > 100 µM; in assay [14] it was > 100 µM; in assay [16] it was > 100 µM; in assay [17], > 100 µM.
As for `CC1(C)CC(=O)C2=C(C1)N(c1ccccc1)C1(O)C=CC(=O)C3=C(O)c4ccccc4C(=O)C321` (stereo not drawn), the TGI in [1] is > 100 µM; in [2], 54.5 µM; in [3], > 100 µM; in assay [4], 42.4 µM; in [18], > 100 µM; in assay [5] it was 63.5 µM. Also, the TGI was > 100 µM in [6]; > 100 µM in assay [7]; > 100 µM in assay [8]; 78.2 µM in [10]; > 100 µM in assay [11]; 56.3 µM in assay [12]. The TGI in [13] was > 100 µM; in [20], 52.1 µM; in assay [14], > 100 µM; in assay [15] it was > 100 µM; in assay [16], 39.6 µM; in assay [17] it was 70.6 µM.
`Cc1ccc(-c2nc3n(c2/C=N\N=C(N)N)CCS3)cc1`: the TGI was determined as 29.6 µM in [1]; 28.5 µM in assay [2]; 29.3 µM in assay [3]; 28.6 µM in assay [18]; 28.5 µM in [5]; 28.5 µM in assay [6]. For the same compound, the TGI was > 100 µM in [7]; 44.2 µM in assay [8]; 30.8 µM in assay [9]; 24.2 µM in assay [10]; 26.8 µM in [11]; 41.4 µM in assay [19]. Moreover, the TGI is 31.9 µM in assay [12]; 29 µM in assay [13]; 29.3 µM in [20]; 28.4 µM in assay [14]; > 100 µM in assay [15]; 29.6 µM in [16]. In addition, the TGI in assay [17] stood at 28.5 µM.
Turning to `CCOc1ccc(C(c2c(O)c3ccccc3oc2=O)c2c(O)c3ccccc3oc2=O)cc1`, the TGI in assay [1] is > 100 µM; in [2] it was > 100 µM; in [3], > 100 µM; in [4], > 100 µM; in assay [18], > 100 µM; in assay [5], 84.3 µM. Besides, the TGI in assay [6], in assay [7], in assay [8], in assay [9], in assay [11] and in assay [19] was > 100 µM in each case. Besides, the TGI in assay [12], in assay [13], in assay [20], in assay [14], in [15] and in assay [17] was > 100 µM each time.
On to `Cc1noc(C)c1N=Nc1ccc2nonc2c1N`, for which the TGI in [1], in assay [2], in assay [3], in [18], in [5] and in assay [6] was > 100 µM in each case. The TGI in assay [7], in assay [9], in assay [10], in assay [11], in assay [12] and in assay [13] was > 100 µM throughout. The TGI in assay [20] was > 100 µM; in assay [15], > 100 µM; in [16], > 100 µM; in assay [17] it was 92.5 µM.
Take `Cc1cc2nc(NS(=O)(=O)c3cc(C)c(Cl)cc3S)[nH]c2cc1C`: the TGI in [1], in [2], in [3], in [18], in assay [5] and in assay [6] was > 100 µM in each case. Besides, the TGI in assay [7], in assay [8], in assay [9], in assay [10], in assay [11] and in assay [19] was > 100 µM in each case. For the same compound, the TGI in assay [12], in [13], in assay [20], in assay [14], in assay [15] and in [16] was > 100 µM throughout. The TGI in [17] is > 100 µM.
As for `COc1ccc2c(c1)-c1c(c3ccccc3n1CCN1CCOCC1)CC2`, the TGI in [1] was > 100 µM; in assay [2] it was 71.5 µM; in assay [3], 54.1 µM; in assay [4], 26.3 µM; in assay [18], 74.8 µM; in assay [5], 45.3 µM. The TGI is 76.8 µM in [6]; 37.9 µM in assay [7]; 54.5 µM in assay [8]; > 100 µM in [9]; 34.3 µM in assay [10]; > 100 µM in assay [11]. Also, the TGI in assay [19] was 32.3 µM; in assay [12] it was 34.5 µM; in [13], > 100 µM; in assay [20] it was 76.9 µM; in assay [14] it was 81.8 µM; in assay [15], 46 µM. This compound displayed a TGI in assay [17] of 52.4 µM.
Take `C[n+]1c(-c2ccc(/C=N/Nc3n[nH]c(=S)n3N/N=C/c3ccc(-c4cn5ccccc5[n+]4C)cc3)cc2)cn2ccccc21`: the TGI in assay [1], in [2], in [3], in [18], in assay [5] and in assay [6] was > 100 µM each time. Further, the TGI in assay [7], in assay [8], in assay [9], in assay [10], in assay [19] and in assay [13] was > 100 µM throughout. For the same compound, the TGI in assay [20], in [14], in [15] and in [17] was > 100 µM in each case.
For the compound `O=C1CSC(c2c(O)ccc3ccccc23)N1n1c(=S)[nH]nc(/C=C/c2c(O)ccc3ccccc23)c1=O` (stereo not drawn), the TGI stood at 14.2 µM in [1]; 76.6 µM in [2]; 14.5 µM in assay [3]; 22 µM in [18]; 22.5 µM in [5]; 16.6 µM in assay [6]. Moreover, the TGI was > 100 µM in [7]; 19.3 µM in assay [8]; 52.1 µM in assay [9]; 22 µM in assay [10]; 15.3 µM in assay [11]; > 100 µM in assay [19]. For the same compound, the TGI is 17.5 µM in assay [12]; 15.1 µM in [13]; 40.3 µM in assay [20]; 16.4 µM in assay [14]; 14.7 µM in assay [15]; 13.7 µM in assay [16].
As to `Cc1cc(NS(=O)(=O)c2ccc(NC(=O)c3cccc4c(NNc5ccc(S(N)(=O)=O)cc5)c5ccccc5nc34)cc2)no1`, the TGI in assay [1] was > 100 µM; in [2], > 100 µM; in assay [3], > 100 µM; in assay [4], 91.7 µM; in assay [18], > 100 µM; in assay [5] it was > 100 µM. In addition, the TGI was > 100 µM in [6]; 87.9 µM in assay [7]; > 100 µM in assay [8]; > 100 µM in [9]; 92.9 µM in assay [10]; > 100 µM in assay [11]. Further, the TGI is 86.1 µM in assay [12]; > 100 µM in [13]; > 100 µM in assay [20]; 63.6 µM in [14]; > 100 µM in assay [15]; > 100 µM in assay [16]. The TGI in assay [17] is > 100 µM.
Consider `O=C(O)c1ccc(/C=N\N(CCO)C2=NCCN2)cc1`, for which the TGI in assay [1], in assay [2], in assay [3], in [4], in assay [18] and in [5] was > 100 µM each time. In addition, the TGI in assay [6], in assay [7], in assay [8], in [9], in assay [10] and in [11] was > 100 µM throughout. The TGI in assay [19], in assay [12], in [13], in [20], in assay [14] and in assay [16] was > 100 µM each time. The TGI in assay [17] is > 100 µM.
